Data as given in publication PMC5693942 (Scientific Reports, 2017).
Values joined by “and” are separate entries in the source; they are usually repeats but may differ in a detail not shown here. Equal values may be shown once. “Also recorded” adds a separate entry of the source.

Legend:
[1] = ref [3], cited from earlier work
[2] = Activated sludge simulating microcosms (degradation of FL, formation of NFL); format: physicochemical; details: for transformation / removal: 24 h
Description: Activated sludge microcosm experiments were conducted in the dark and aerobic conditions. Three microcosm bioreactors were investigated in duplicate. They were filled with 2 L of fresh activated sludge collected from a local wastewater treatment plant. […] Dark conditions were simulated by covering up the flask with foil. Aerobic conditions were obtained using air from BOC air cylinder and a thorough mixing was maintained using magnetic stirrers. The experiment was 24 hours long. […] Collected samples were subsequently frozen until their analysis to prevent degradation of compounds.
The compounds studied are characterized as having low volatility and therefore volatilization was not considered as a potential removal pathway in studied microcosms. Photodegradation was also not considered (not relevant) under tested activated sludge conditions. Therefore the two important degradation mechanisms to consider were biodegradation and sorption to sludge. […] However, in this study, sorption equilibrium was assumed and therefore sorption could be considered negligible. This is because sorption is assumed to be fast when compared to biological degradation.
Several reports utilized pseudo-first-order kinetics for degradation of micropollutants in activated sludge reactors[48]–[50]. […] Pseudo-first order biodegradation rate k1 [L g^−1h^−1]

[3] = River water simulating microcosms (degradation of FL); details: for removal of FL: river water
Tetrahymena thermophila = assay: microbe, parasite or virus in culture; format: cell-based
Description: The tests were performed in accordance with the protocols provided by the manufacturer. […] The tests were carried out in disposable spectrophotometric cells of 1 cm path-length, to enable the measurement of the optical density (OD) at 440 nm. […] This change in OD over the time period is used to quantify the degree of inhibition and subsequent calculation of the EC50. Each concentration was repeated in duplicate.

D. magna = details: ref [34]; cited from earlier work
Daphnia magna = Daphnia magna acute 48 h immobilization assay (Daphtoxkit); format: in vivo; details: 48 h;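 also: test concentrations in mg per L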
Description: Six concentration levels (5 concentrations plus control, four replicate beakers for each concentrations, five individual for each beaker) were tested. […] Each experiment was repeated in triplicate.

P. promelas = details: ref [34]; cited from earlier work
[4] = 10 µg L^−1 microcosm, first 30 minutes

For `CNCCC(Oc1ccc(C(F)(F)F)cc1)c1ccccc1` (stereo not drawn) [FL, Fluoxetine, reference compound], the “excreted in the urine as this species” value ([1]; after FL) is given as 11.6%, the “excreted in the feces” value [1] is given as “approximately 15%” and the “excreted in the urine” value [1] is given as 80%. For the same molecule, the EF ([2]; 10 µg L-1 microcosm, time 0) was 0.484, the EF ([2]; 10 µg L-1 microcosm, time 0.5) was 0.504 and the EF ([2]; 10 µg L-1 microcosm, time 1) was 0.347. For the same molecule, the EF ([2]; 10 µg L-1 microcosm, time 1.5) was 0.499, the EF ([2]; 10 µg L-1 microcosm, time 2) was 0.480 and the EF ([2]; 10 µg L-1 microcosm, time 3) was 0.499. The EF ([2]; 10 µg L-1 microcosm, time 5) was 0.429, the EF ([2]; 10 µg L-1 microcosm, time 8) was 0.461 and the EF ([2]; 10 µg L-1 microcosm, time 12) was 0.263. The EF ([2]; 10 µg L-1 microcosm, time 24) was 0.260, the lag phase ([2]; 10 µg L^−1 FL bioreactor) was 3 h and the “degradation (rapid removal from aqueous phase)” value [2, 4] was 50%. The “enantiomeric fraction (EF)” value [2, 4] was 0.5, the “enantiomeric fraction (EF)” value ([2]; 10 µg L^−1 reactor, after further slow removal) was < 0.3 and the EF ([2]; 100 µg L-1 microcosm, time 0) was 0.531. It also gave an EF ([2]; 100 µg L-1 microcosm, time 0.5) of 0.519, an EF ([2]; 100 µg L-1 microcosm, time 1) of 0.515 and an EF ([2]; 100 µg L-1 microcosm, time 1.5) of 0.516. The EF ([2]; 100 µg L-1 microcosm, time 2) was 0.511, the EF ([2]; 100 µg L-1 microcosm, time 3) was 0.477 and the EF ([2]; 100 µg L-1 microcosm, time 5) was 0.431. For the same molecule, the EF ([2]; 100 µg L-1 microcosm, time 8) was 0.410, the EF ([2]; 100 µg L-1 microcosm, time 12) was 0.326 and the EF ([2]; 100 µg L-1 microcosm, time 24) was 0.257. For the same molecule, the lag phase ([2]; 100 µg L^−1 FL bioreactor) was 2 h, the “enantiomeric fraction (EF)” value ([2]; 100 µg L^−1 microcosm) was < 0.3 and the transformation / removal ([2]; 100 µg L^−1 microcosm) was 60%. It also gave an EF ([3]; DAR (dark abiotic), day 1) of 0.499, an EF ([3]; DAR (dark abiotic), day 2) of 0.502 and an EF ([3]; DAR (dark abiotic), day 3) of 0.504. For the same molecule, the EF ([3]; DAR (dark abiotic), day 4) was 0.507, the EF ([3]; DAR (dark abiotic), day 9) was 0.497 and the EF ([3]; DAR (dark abiotic), day 10) was 0.505. It also gave an EF ([3]; DAR (dark abiotic), day 11) of 0.526, an EF ([3]; DAR (dark abiotic), day 15) of 0.497 and an EF ([3]; DBR (dark biotic), day 1) of 0.506. The EF ([3]; DBR (dark biotic), day 2) was 0.468, the EF ([3]; DBR (dark biotic), day 3) was 0.496 and the EF ([3]; DBR (dark biotic), day 4) was 0.503. For the same molecule, the EF ([3]; DBR (dark biotic), day 5) was 0.495, the EF ([3]; DBR (dark biotic), day 8) was 0.441 and the EF ([3]; DBR (dark biotic), day 9) was 0.499. It also gave an EF ([3]; DBR (dark biotic), day 10) of 0.507, an EF ([3]; DBR (dark biotic), day 11) of 0.495 and an EF ([3]; DBR (dark biotic), day 12) of 0.490. For the same molecule, the EF ([3]; DBR (dark biotic), day 15) was 0.538, the EF ([3]; DBR (dark biotic), day 16) was 0.554 and the EF ([3]; LAR (light abiotic), day 1) was 0.497. It also gave an EF ([3]; LAR (light abiotic), day 2) of 0.488, an EF ([3]; LAR (light abiotic), day 3) of 0.491 and an EF ([3]; LAR (light abiotic), day 4) of 0.498. It also gave an EF ([3]; LAR (light abiotic), day 5) of 0.511, an EF ([3]; LAR (light abiotic), day 8) of 0.508 and an EF ([3]; LAR (light abiotic), day 9) of 0.513. The EF ([3]; LAR (light abiotic), day 10) was 0.511, the EF ([3]; LAR (light abiotic), day 11) was 0.512 and the EF ([3]; LAR (light abiotic), day 12) was 0.487. It also gave an EF ([3]; LAR (light abiotic), day 15) of 0.531, an EF ([3]; LAR (light abiotic), day 16) of 0.535 and an EF ([3]; LBR (light biotic), day 1) of 0.493. It also gave an EF ([3]; LBR (light biotic), day 2) of 0.493, an EF ([3]; LBR (light biotic), day 3) of 0.498 and an EF ([3]; LBR (light biotic), day 4) of 0.502. It also gave an EF ([3]; LBR (light biotic), day 5) of 0.508, an EF ([3]; LBR (light biotic), day 8) of 0.537 and an EF ([3]; LBR (light biotic), day 9) of 0.512. It also gave an EF ([3]; LBR (light biotic), day 10) of 0.497, an EF ([3]; LBR (light biotic), day 11) of 0.498 and an EF ([3]; LBR (light biotic), day 12) of 0.491. The EF ([3]; LBR (light biotic), day 15) was 0.525, the EF ([3]; LBR (light biotic), day 16) was 0.467 and the “removal of FL” value ([3]; dark abiotic conditions (DAR)) was “did not lead to any significant removal”.
In the case of `CNCC[C@@H](Oc1ccc(C(F)(F)F)cc1)c1ccccc1` [(R)-FL, (R)-N-Methyl-3-(4-trifluoromethylphenoxy)-3-phenylpropylamine], the “times more toxic than (S)-FL” value (Tetrahymena thermophila; Tetrahymena thermophila) is reported as 30 ×, the “% I (percentage inhibition)” value (Tetrahymena thermophila; definitive test, conc. 0.086) is reported as -8.032% and the “% I (percentage inhibition)” value (Tetrahymena thermophila; definitive test, conc. 24.098) is reported as 91.516%. The “% I (percentage inhibition)” value (Tetrahymena thermophila; definitive test, conc. 79.522) was 90.724%, the “% I (percentage inhibition)” value (Tetrahymena thermophila; range test, conc. 0.005) was -3.105% and the “% I (percentage inhibition)” value (Tetrahymena thermophila; range test, conc. 0.050) was 5.433%. The “% I (percentage inhibition)” value (Tetrahymena thermophila; range test, conc. 0.500) was -1.164%, the “% I (percentage inhibition)” value (Tetrahymena thermophila; range test, conc. 5.000) was 39.974% and the LOEC21d -grazing (D. magna) was “none”. The LOEC21d -immobilization (D. magna) was 0.43 mg/L, the LOEC21d -reproduction (D. magna) was 0.43 mg/L and the degradation ([2]; 10 µg L^−1) was “lack of degradation; also recorded: No degradation”. The kbiol ([2]; 100 µg L^−1) was 0.01 LgSS ^−1h^−1, the t1/2biol ([2]; 100 µg L^−1) was 68 h and 68.0 h and the k1 ([2]; 100 µg L^−1, pseudo-first order) was 0.02 h⁻¹. The transformation / removal ([2]; 100 µg L^−1 microcosm) was 38%, the “removal of FL” value ([3]; dark biotic conditions (DBR), 1 µg L^−1 racemic FL, 16 days) was 67.9% and the “removal of FL” value ([3]; light abiotic conditions (LAR), 1 µg L^−1 racemic FL, 16 days) was 79.2%. The “removal of FL” value ([3]; light biotic reactor (LBR), 1 µg L^−1 racemic FL, 16 days) was 96.7%, the “Average effect (N immobile, 5 daphnids per replicate)” value (Daphnia magna; concentration 0.5) was 0 and the “Average effect (N immobile, 5 daphnids per replicate)” value (Daphnia magna; concentration 1.5) was 0.25. For the same molecule, the “Average effect (N immobile, 5 daphnids per replicate)” value (Daphnia magna; concentration 5) was 3.25, the “Average effect (N immobile, 5 daphnids per replicate)” value (Daphnia magna; concentration 16) was 5 and the “Average effect (N immobile, 5 daphnids per replicate)” value (Daphnia magna; concentration 50) was 5. The LOEC7d -feeding (P. promelas) was 0.17 mg/L, the LOEC7d -growth (P. promelas) was 0.17 mg/L and the LOEC7d -survival (P. promelas) was 0.17 mg/L.
